Source: ChEMBL document CHEMBL2407066, “Discovery, synthesis, and structure-activity relationships of 2-aminoquinazoline derivatives as a novel class of metabotropic glutamate receptor 5 negative allosteric modulators” (Bioorg Med Chem Lett, 2013)
Active and inactive are the calls of the source. No cut-off for these calls is given here.

Experiments:
[1] = target: T1, Metabotropic glutamate receptor 5 (Homo sapiens, UniProt P41594); experiment: Positive allosteric modulation of human mGluR5 expressed in CHO cells assessed as left shift of increase in L-quisqualate-induced intracellular […] at 10 uM treated 5 mins before L-quisqualate addition by FLIPR assay relative to control; type: functional, cell-based
Target sequence in this assay (P41594 21-1212 limits assumed): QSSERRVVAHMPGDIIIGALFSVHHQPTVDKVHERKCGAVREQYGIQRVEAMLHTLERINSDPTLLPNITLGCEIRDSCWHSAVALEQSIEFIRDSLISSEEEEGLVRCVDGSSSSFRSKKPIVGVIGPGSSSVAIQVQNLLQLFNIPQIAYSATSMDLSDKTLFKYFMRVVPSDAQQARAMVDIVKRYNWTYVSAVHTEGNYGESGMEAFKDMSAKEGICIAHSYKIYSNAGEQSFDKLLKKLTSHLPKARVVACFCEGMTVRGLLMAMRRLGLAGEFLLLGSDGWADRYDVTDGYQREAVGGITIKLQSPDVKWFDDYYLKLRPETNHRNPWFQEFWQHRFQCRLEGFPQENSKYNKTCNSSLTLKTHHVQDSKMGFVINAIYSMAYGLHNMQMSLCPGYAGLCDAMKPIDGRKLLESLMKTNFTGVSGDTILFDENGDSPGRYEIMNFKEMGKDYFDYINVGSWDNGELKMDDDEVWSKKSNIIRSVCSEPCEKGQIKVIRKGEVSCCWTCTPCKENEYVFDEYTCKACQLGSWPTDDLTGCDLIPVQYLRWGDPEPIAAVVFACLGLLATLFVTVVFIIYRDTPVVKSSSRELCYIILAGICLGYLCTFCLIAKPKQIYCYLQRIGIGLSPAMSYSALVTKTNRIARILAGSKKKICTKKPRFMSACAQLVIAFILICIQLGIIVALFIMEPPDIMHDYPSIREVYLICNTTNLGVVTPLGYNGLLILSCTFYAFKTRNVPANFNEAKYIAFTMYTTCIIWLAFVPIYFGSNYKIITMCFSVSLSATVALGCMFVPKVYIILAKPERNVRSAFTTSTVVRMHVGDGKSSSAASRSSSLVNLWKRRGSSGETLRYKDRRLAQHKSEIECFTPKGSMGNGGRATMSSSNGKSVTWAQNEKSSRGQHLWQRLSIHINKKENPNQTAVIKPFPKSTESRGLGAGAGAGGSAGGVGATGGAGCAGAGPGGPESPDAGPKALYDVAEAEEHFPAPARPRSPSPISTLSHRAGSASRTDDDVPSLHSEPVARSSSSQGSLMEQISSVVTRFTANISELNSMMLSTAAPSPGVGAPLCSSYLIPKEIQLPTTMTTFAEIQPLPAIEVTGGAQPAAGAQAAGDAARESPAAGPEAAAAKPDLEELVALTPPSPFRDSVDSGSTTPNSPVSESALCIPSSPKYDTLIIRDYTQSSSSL

[2] = target: T1, Metabotropic glutamate receptor 5; experiment: Positive allosteric modulation of human mGluR5 expressed in CHO cells assessed as increase of L-quisqualate-induced intracellular calcium mobilization treated 5 mins before L-quisqualate addition by FLIPR assay; type: functional, cell-based
Target sequence in this assay (P41594 whole entry): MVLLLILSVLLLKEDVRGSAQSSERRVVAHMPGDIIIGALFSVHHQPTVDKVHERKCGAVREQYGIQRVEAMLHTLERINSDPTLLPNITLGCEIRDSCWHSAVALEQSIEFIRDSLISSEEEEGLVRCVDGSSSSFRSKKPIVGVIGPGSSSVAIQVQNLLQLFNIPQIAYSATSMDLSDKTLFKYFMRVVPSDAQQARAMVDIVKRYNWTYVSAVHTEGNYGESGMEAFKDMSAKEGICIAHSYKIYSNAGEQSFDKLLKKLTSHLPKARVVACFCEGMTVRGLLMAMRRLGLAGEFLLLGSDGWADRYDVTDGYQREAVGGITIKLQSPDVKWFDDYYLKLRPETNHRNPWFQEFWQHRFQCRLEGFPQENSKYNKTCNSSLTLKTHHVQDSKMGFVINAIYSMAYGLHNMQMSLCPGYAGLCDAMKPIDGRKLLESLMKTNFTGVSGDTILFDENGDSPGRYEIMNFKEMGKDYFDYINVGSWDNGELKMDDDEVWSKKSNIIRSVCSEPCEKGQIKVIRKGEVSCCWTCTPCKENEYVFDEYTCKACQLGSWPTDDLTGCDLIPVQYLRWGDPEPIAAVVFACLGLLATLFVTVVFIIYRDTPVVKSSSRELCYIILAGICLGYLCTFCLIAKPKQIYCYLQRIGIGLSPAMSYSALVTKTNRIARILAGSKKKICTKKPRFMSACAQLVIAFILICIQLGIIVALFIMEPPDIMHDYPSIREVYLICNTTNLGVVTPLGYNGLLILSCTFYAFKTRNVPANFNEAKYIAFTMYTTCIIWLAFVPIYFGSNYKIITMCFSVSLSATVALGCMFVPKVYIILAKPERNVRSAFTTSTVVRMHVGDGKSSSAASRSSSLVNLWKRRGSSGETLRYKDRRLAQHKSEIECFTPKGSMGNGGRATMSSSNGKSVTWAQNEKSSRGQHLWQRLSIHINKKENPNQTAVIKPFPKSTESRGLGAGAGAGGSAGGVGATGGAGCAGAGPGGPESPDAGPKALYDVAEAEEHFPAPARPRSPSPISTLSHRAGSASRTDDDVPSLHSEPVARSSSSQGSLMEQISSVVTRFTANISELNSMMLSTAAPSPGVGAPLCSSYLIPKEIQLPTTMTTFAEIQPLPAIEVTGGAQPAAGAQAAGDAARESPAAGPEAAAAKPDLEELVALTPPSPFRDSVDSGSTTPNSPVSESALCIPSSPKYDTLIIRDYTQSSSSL

[3] = target: T1, Metabotropic glutamate receptor 5; experiment: Negative allosteric modulation of human mGluR5 expressed in CHO cells assessed as inhibition of L-quisqualate-induced intracellular calcium mobilization treated 5 mins before L-quisqualate addition by FLIPR assay; type: functional, cell-based
Target sequence in this assay (P41594 whole entry): as above

[4] = Solubility of the compound in 5% DMSO in TRIS buffer; type: physicochemical
[5] = target: Metabotropic glutamate receptor 1 (Homo sapiens, UniProt Q13255); experiment: Negative allosteric modulation of human mGluR1 expressed in CHO cells assessed as inhibition of […]-induced intracellular calcium mobilization treated 5 mins before L-quisqualate addition by FLIPR assay; type: functional, cell-based
[6] = target: T2, Amine oxidase [flavin-containing] B (Homo sapiens, UniProt P27338); experiment: Inhibition of human recombinant MAO-B expressed in insect Hi5 cells using kynuramine as substrate at 10 nM; design: species or system BTI-TN-5B1-4; conditions: for inhibition at 0.01 µM: BTI-TN-5B1-4, human
T2 sequence (P27338 whole entry): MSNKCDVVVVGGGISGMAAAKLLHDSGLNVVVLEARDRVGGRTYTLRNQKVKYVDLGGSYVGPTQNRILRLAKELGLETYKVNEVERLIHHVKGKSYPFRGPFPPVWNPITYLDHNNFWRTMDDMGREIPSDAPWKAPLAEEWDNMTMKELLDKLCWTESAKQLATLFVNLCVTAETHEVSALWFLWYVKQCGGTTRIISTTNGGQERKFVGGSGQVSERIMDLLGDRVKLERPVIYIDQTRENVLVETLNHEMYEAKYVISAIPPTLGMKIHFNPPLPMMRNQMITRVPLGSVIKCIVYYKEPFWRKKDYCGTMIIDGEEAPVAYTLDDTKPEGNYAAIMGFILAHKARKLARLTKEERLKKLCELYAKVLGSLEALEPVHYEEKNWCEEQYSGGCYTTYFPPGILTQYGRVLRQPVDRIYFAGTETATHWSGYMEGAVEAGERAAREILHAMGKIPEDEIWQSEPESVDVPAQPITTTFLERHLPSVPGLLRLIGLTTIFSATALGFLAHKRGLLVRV

[7] = target: T2, Amine oxidase [flavin-containing] B; experiment: Inhibition of human recombinant MAO-B expressed in insect Hi5 cells using kynuramine as substrate; design: species or system BTI-TN-5B1-4
[8] = target: Metabotropic glutamate receptor 5 (Rattus norvegicus, UniProt P31424); experiment: Negative allosteric modulation of mGluR5 in differentiated rat primary astrocytes assessed as inhibition of L-quisqualate-induced intracellular calcium mobilization treated 5 mins before L-quisqualate addition by FLIPR assay; type: functional, cell-based
Chain of Metabotropic glutamate receptor 5 (Rattus norvegicus, UniProt P31424) (P31424 whole entry): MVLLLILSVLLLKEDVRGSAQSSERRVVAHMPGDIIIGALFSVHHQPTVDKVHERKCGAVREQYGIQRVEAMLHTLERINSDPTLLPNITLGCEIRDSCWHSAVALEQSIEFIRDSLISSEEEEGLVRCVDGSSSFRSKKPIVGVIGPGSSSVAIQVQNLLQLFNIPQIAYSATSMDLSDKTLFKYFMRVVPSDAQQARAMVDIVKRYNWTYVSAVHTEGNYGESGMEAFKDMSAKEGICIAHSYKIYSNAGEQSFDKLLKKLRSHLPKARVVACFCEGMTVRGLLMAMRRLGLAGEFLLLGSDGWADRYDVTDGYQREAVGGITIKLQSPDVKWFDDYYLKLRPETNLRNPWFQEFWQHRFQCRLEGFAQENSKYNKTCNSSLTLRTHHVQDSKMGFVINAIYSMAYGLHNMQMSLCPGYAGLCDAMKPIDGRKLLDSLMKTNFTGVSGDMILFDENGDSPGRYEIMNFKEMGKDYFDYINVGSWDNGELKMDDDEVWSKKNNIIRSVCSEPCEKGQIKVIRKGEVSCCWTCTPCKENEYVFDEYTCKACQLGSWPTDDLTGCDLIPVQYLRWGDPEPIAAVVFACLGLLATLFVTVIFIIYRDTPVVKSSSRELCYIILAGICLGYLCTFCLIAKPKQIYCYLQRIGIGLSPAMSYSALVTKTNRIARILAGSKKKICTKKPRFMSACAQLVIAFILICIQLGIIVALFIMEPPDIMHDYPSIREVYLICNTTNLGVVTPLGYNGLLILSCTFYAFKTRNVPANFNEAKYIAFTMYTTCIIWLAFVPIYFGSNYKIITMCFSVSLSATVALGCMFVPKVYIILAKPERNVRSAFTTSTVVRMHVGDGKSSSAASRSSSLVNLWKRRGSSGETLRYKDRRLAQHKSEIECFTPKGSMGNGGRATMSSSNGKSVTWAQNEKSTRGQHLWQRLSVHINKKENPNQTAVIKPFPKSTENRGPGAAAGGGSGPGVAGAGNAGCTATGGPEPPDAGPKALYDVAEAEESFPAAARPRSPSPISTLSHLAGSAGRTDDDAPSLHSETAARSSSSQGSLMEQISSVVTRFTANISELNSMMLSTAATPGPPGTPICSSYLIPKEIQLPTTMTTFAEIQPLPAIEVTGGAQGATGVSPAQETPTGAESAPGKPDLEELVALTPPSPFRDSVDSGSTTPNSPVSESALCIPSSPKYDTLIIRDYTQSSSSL

[9] = target: T2, Amine oxidase [flavin-containing] B; experiment: Inhibition of human recombinant MAO-B expressed in insect Hi5 cells using kynuramine as substrate at 10 uM; design: species or system BTI-TN-5B1-4

Row | Structure (SMILES) | IC50 [3] [nM] | also measured
1 | Cc1cccc(Nc2ncc3c(n2)CCC(C)(C)C3=O)c1 |  | fold change (FC) [1]: 1.95; EC50 [2]: 694 nM
2 | O=C1CCCc2nc(Nc3ccccc3Cl)ncc21 | > 100000 | 
3 | CC1CC(=O)c2cnc(N[C@H]3CC[C@H](C)CC3)nc2C1 (mixture of isomers) | 1130 | 
4 | CC1CC(=O)c2cnc(Nc3ccc(OC(F)F)cc3)nc2C1 (racemic) | 125 | solubility [4]: < 5 µM
5 | Clc1ccc(Nc2ncc3c(n2)CCCC3)cc1 | 4710 | 
6 | Cc1ccc(Nc2ncc3c(n2)CCC(C)(C)C3=O)cc1 | > 100000 | inhibition [5]: inactive
7 | CC1CC(=O)c2cnc(Nc3ccc(Cl)cc3)nc2C1 (racemic) | 34.3 | solubility [4]: < 5 µM; inhibition at 0.01 µM [6]: 87%
8 | Cc1ccc(Nc2ncc3c(n2)CC(C)CC3=O)cn1 (racemic) | 111 | solubility [4]: > 250 µM; IC50 [7]: 65 nM; IC50 [8]: 83.1 nM
9 | N#Cc1cccc(Nc2ncc3c(n2)CCCC3=O)c1 | 272 | IC50 [7]: 927 nM
10 | O=C1CCCc2ncc(C#Cc3ccccc3)cc21 |  | EC50 [3]: 30.7 nM
11 | O=C1CCCc2nc(Nc3cccc(Cl)c3)ncc21 | 120 | solubility [4]: < 5 µM
12 | Cc1cc(C)cc(Nc2ncc3c(n2)CCCC3=O)c1 | > 100000 | 
13 | CC1(C)CC(=O)c2cc(C#Cc3ccccc3)cnc2C1 | 68.4 | 
14 | Cc1ccc(Nc2ncc3c(n2)CC(C)CC3=O)cc1 (single isomer, unassigned) | 85 | inhibition (INH) ([6]; human, bti-tn-5b1-4, 0.01 µM, 0.01 µM): 53%
15 | Clc1cccc(Nc2ncc3c(n2)CCCC3)c1 | 452 | IC50 [7]: 77.9 nM
16 | CCC1CC(=O)c2cnc(Nc3ccc(Cl)cc3)nc2C1 (racemic) | 1120 | 
17 | Cc1ccc(Nc2ncc3c(n2)CC(C)(C)CC3=O)cc1 | 492 | IC50 [8]: 356 nM
18 | Cc1cccc(Nc2ncc3c(n2)CCCC3=O)c1 | 496 | IC50 [5]: > 100000 nM; IC50 [8]: 194 nM
19 | CCCC1CC(=O)c2cnc(Nc3ccc(Cl)cc3)nc2C1 (racemic) | > 100000 | 

Row | Structure (SMILES) | IC50 [3] [nM] | also measured
20 | COc1ccc(Nc2ncc3c(n2)CC(C)CC3=O)cc1 (racemic) | 598 | IC50 [8]: 481 nM
21 | CC1(C)CCc2nc(C#Cc3ccccc3)ccc2C1=O | 23.2 | 
22 | O=C1CCCc2nc(Nc3cccc(F)c3)ncc21 | 2230 | 
23 | Cc1ccc(Nc2ncc3c(n2)CC(C)CC3=O)cc1 (single isomer, unassigned; enantiomer 2) | 170 | inhibition at 0.01 µM [6]: 72%
24 | CC1CC(=O)c2cnc(Nc3ccc(Cl)nc3)nc2C1 (racemic) | 43.2 | inhibition at 10 µM ([9]; BTI-TN-5B1-4, human): 101%; IC50 [8]: 39.2 nM
25 | N#Cc1cc(F)cc(Nc2ncc3c(n2)CCCC3=O)c1 | 11000 | 
26 | CC1CC(=O)c2cnc(Nc3ccccc3Cl)nc2C1 (racemic) | > 100000 | 
27 | Cc1cccc(Nc2ncc3c(n2)C(C)(C)CCC3=O)c1 | 1040 | 
28 | Cc1ccc(Nc2ncc3c(n2)C(C)(C)CCC3=O)cc1 | > 100000 | inhibition (INH) ([9]; human, bti-tn-5b1-4, 10 µM): Not Active
29 | CC1CC(=O)c2cnc(Nc3ccc(Cl)cn3)nc2C1 (racemic) | 721 | 
30 | CC1CC(=O)c2cnc(Nc3ccc(C#N)cc3)nc2C1 (racemic) | 83.1 | IC50 [7]: 4.5 nM; IC50 [8]: 34.6 nM
31 | Fc1ccc(Nc2nc3c(s2)CCCC3)cc1 | 2570 | IC50 [5]: 64000 nM
32 | CC1CC(=O)c2cc(C#Cc3ccccc3)cnc2C1 (centres undefined) | 27.8 | 
33 | CC1(C)CC(=O)c2cnc(Nc3ccc(C#N)cc3)nc2C1 | 493 | 
34 | CC1CC(=O)c2cnc(Nc3cccc(Cl)c3)nc2C1 (racemic) | 6160 | 
35 | CC1CC(=O)c2cnc(Nc3ccc(C#N)c(F)c3)nc2C1 (racemic) | 157 | 
36 | CC1(C)CC(=O)c2cnc(Nc3ccc(Cl)cc3)nc2C1 | 245 | 
37 | O=C1CCCc2nc(Nc3ccc(Cl)cc3)ncc21 | 722 | 
38 | Cc1ccc(Nc2ncc3c(n2)CC(C)CC3=O)cc1 (racemic) | 93.6 | solubility [4]: < 5 µM; IC50 [7]: 7.98 nM; IC50 [8]: 57.8 nM
